Results as given in PubChem BioAssay AID977624 (Broad Institute, 2014).
Records with an inconclusive call do not appear. Activity calls are given as the source filed them.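 The calls were made as follows: active = compound lowering the normal-ribosome reporter at least twice as much as the humanized-ribosome reporter, growth loss under a set limit; inconclusive = no clear call, values can overlap the other calls; inactive = the rest.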

Test system: E. coli wild-type GFP strain growth, fluorescence, 24 h
Experiment: growth inhibition of wild-type GFP E. coli, dose response, h34 mutant RFP, cherry-pick (AID 977624);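 also: wild-type GFP strain co-cultured with humanized h34 ribosome RFP strain in same well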

Question: For CCOC(=O)c1nc(S(C)(=O)=O)ncc1Cl, which AC50 is on record?
Answer: The AC50 was > 100 µM (inactive).

Question: With COc1cc(NC(=O)c2ccc([N+](=O)[O-])o2)ccc1NC(=O)c1ccco1 as the compound, how does the AC50 read?
Answer: The AC50 was > 100 µM (inactive).

Question: Which AC50 does the source give for O=C(Nc1ccc2nc3n(c(=O)c2c1)CCCCC3)c1c(F)ccc([N+](=O)[O-])c1F here?
Answer: The AC50 was > 100 µM (inactive).

Question: How did the AC50 turn out when O=C(CCc1nc2ccccc2s1)OCC(=O)c1ccc[nH]1 was run?
Answer: The AC50 was > 100 µM (inactive).

Question: For CCOc1ccc(NC(=O)CN(C)CC(=O)Nc2ccc(Br)cc2F)cc1OCC, which AC50 is on record?
Answer: The AC50 was > 100 µM (inactive).

Question: CC1(C(=O)NS(=O)(=O)c2ccc3c(c2)CCO3)CCN1C(=O)c1ccccc1CCc1ccccc1 (stereo not drawn) was tested. Which AC50 did it give?
Answer: The AC50 was > 100 µM (inactive).

Question: CCOc1ccc(C(C)=O)cc1CN1C(=O)NC2(CCCCCCC2)C1=O was tested. Which AC50 did it give?
Answer: Its AC50 is > 100 µM (inactive).

Question: Which AC50 does the source give for NC(=O)c1ccsc1NC(=O)COC(=O)CCOc1ccccc1 here?
Answer: The AC50 was > 100 µM (inactive).

Question: Which AC50 does the source give for CCCCNC(=O)C[C@@H]1C[C@@]2(C(=O)OC)CCCCC=C2N(Cc2ccccc2)C1=O here?
Answer: Its AC50 is > 100 µM (inactive).

Question: Which AC50 does the source give for COc1ccc(-c2nnn(CC(=O)N3CCN(c4ccccc4OC)CC3)n2)cc1OC here?
Answer: Its AC50 is > 100 µM (inactive).

Question: Which AC50 does the source give for Cc1cc(C(=O)COC(=O)c2ccc(Br)o2)c(C)n1C here?
Answer: The AC50 was > 100 µM (inactive).

Question: Which AC50 does the source give for CCN(c1ccccc1)S(=O)(=O)c1ccc(OC)c(OC)c1 here?
Answer: The AC50 was > 100 µM (inactive).

Question: Which AC50 does the source give for COc1cc(SC)ccc1C(=O)N1CCN(c2ccccc2F)CC1 here?
Answer: Its AC50 is > 100 µM (inactive).

Question: For CCC(=O)c1ccc(OCC(=O)Nc2nc(C)cs2)cc1, which AC50 is on record?
Answer: The AC50 was > 100 µM (inactive).

Question: N#Cc1nc(Cc2ccccc2)oc1N1CCCC1 was tested. Which AC50 did it give?
Answer: Its AC50 is > 100 µM (inactive).

Question: How did the AC50 turn out when O=C(CSc1nc2scc(-c3ccccc3)c2c(=O)[nH]1)N1CCCCC1 was run?
Answer: The AC50 was > 100 µM (inactive).

Question: With FC(F)(F)c1ccc(Cl)c(-n2c(Cc3cccs3)n[nH]c2=S)c1 as the compound, how does the AC50 read?
Answer: Its AC50 is > 100 µM (inactive).

Question: With CCOC(=O)c1[nH]c2ccccc2c1NC(=O)c1ccc(Br)o1 as the compound, how does the AC50 read?
Answer: Its AC50 is > 100 µM (inactive).

Question: How did the AC50 turn out when Cc1ccc(C(=O)OCC(=O)c2c[nH]c3ccccc23)cc1NC(=O)c1ccco1 was run?
Answer: Its AC50 is > 100 µM (inactive).

Question: Which AC50 does the source give for O=C(c1ccc(-n2cccn2)cc1)N1CCc2ccccc2C1 here?
Answer: Its AC50 is > 100 µM (inactive).

Question: For CCOc1cccc(-c2cc(-c3n[nH]c(=S)n3CC)c3ccccc3n2)c1, which AC50 is on record?
Answer: Its AC50 is > 100 µM (inactive).

Question: Cc1ccc(S(=O)(=O)NCc2c(-c3ccccc3)noc2C)cc1 was tested. Which AC50 did it give?
Answer: Its AC50 is > 100 µM (inactive).

Question: How did the AC50 turn out when COC(=O)c1c(NC(=O)c2ccccc2C(=O)O)sc2c1CCC2 was run?
Answer: The AC50 was > 100 µM (inactive).

Question: Which AC50 does the source give for CCOc1ccccc1N1CCN(Cc2cn[nH]c2-c2ccc(F)cc2)CC1 here?
Answer: Its AC50 is > 100 µM (inactive).

Question: O=C(O)c1ccc(-c2noc(-c3cccc(Cl)c3)n2)cc1 was tested. Which AC50 did it give?
Answer: The AC50 was > 100 µM (inactive).

Question: For C[C@H](CO)N1C[C@H](C)[C@H](CN(C)C(=O)CCCN(C)C)OCCCC[C@H](C)Oc2ccc(NC(=O)Nc3cccc4ccccc34)cc2C1=O, which AC50 is on record?
Answer: Its AC50 is > 100 µM (inactive).

Question: Which AC50 does the source give for CSc1cccc(NC(=O)CSc2nc3ccccc3o2)c1 here?
Answer: The AC50 was > 100 µM (inactive).

Question: CCc1nnc(NS(=O)(=O)c2ccc(NC(=O)c3cccc4ccccc34)cc2)s1 was tested. Which AC50 did it give?
Answer: The AC50 was > 100 µM (inactive).

Question: How did the AC50 turn out when Cc1cc(NC(=O)CS(=O)(=O)c2cn(Cc3cccc(Br)c3)c3ccccc23)no1 was run?
Answer: Its AC50 is > 100 µM (inactive).

Question: For CC1(C(=O)NS(=O)(=O)c2cccc(C#N)c2)CCN1C(=O)C1(c2ccc(Cl)cc2)CCC1 (stereo not drawn), which AC50 is on record?
Answer: Its AC50 is > 100 µM (inactive).

Question: Which AC50 does the source give for COc1ccc(C(CC(=O)c2ccc(O)cc2)S(=O)(=O)c2ccc(C)cc2)cc1 (stereo not drawn) here?
Answer: Its AC50 is > 100 µM (inactive).

Question: CN(CCOc1ccccc1)S(=O)(=O)c1ccccc1C#N was tested. Which AC50 did it give?
Answer: Its AC50 is > 100 µM (inactive).

Question: For CCC(=O)Nc1sc(Cc2ccc3c(c2)OCO3)c(C)c1C(N)=O, which AC50 is on record?
Answer: The AC50 was > 100 µM (inactive).

Question: CCCN(CC1CC1)C(=O)CSc1ncnc2sccc12 was tested. Which AC50 did it give?
Answer: Its AC50 is > 100 µM (inactive).

Question: For Cc1cccc(C)c1NC(=O)C1(C)CSCC(=O)N1CCOc1ccccc1 (stereo not drawn), which AC50 is on record?
Answer: The AC50 was > 100 µM (inactive).

Question: For COc1ccc2nc(SCC(=O)Nc3ccccc3OC)[nH]c2c1, which AC50 is on record?
Answer: The AC50 was > 100 µM (inactive).

Question: Clc1ccc(-c2nc3ccc(Br)cn3c2Cc2ccsc2)cc1 was tested. Which AC50 did it give?
Answer: The AC50 was > 100 µM (inactive).

Question: Which AC50 does the source give for CCN(CC)CCN(C(=O)C1CCCCC1)c1nc2cc3c(cc2s1)OCO3 here?
Answer: The AC50 was > 100 µM (inactive).

Question: For CN(C)C(=O)C1C2NC(=S)N(c3cccc(Cl)c3)C1(C)Oc1ccc(Cl)cc12 (stereo not drawn), which AC50 is on record?
Answer: Its AC50 is > 100 µM (inactive).

Question: With COc1ccc(NC(=O)Nc2cccc3c2O[C@@H](CN(C)S(=O)(=O)c2ccc(Cl)cc2)[C@H](C)CN([C@H](C)CO)C3=O)cc1 as the compound, how does the AC50 read?
Answer: Its AC50 is > 100 µM (inactive).

Question: COc1ccc2[nH]cc(CCNC(=O)C3CC(=O)N(c4ccc(Cl)cc4)C3)c2c1 (stereo not drawn) was tested. Which AC50 did it give?
Answer: The AC50 was > 100 µM (inactive).

Question: Which AC50 does the source give for Cc1ccsc1C(=O)OCC(=O)N1CCc2ccccc2C1 here?
Answer: Its AC50 is > 100 µM (inactive).

Question: Which AC50 does the source give for CCN(C(=O)COC(=O)c1cn(-c2ccccc2)nc1-c1ccccc1)C1CCS(=O)(=O)C1 (stereo not drawn) here?
Answer: Its AC50 is > 100 µM (inactive).

Question: Which AC50 does the source give for O=C(Nc1cccc(O)c1)c1cc(-c2ccccc2Cl)on1 here?
Answer: The AC50 was > 100 µM (inactive).

Question: Which AC50 does the source give for COC(=O)c1c(-c2ccc(OC)cc2)sc2cc(OC)c(OC)cc12 here?
Answer: The AC50 was > 100 µM (inactive).

Question: For O=C(NCc1ccccc1)c1nc(S(=O)(=O)Cc2ccccc2)ncc1Cl, which AC50 is on record?
Answer: The AC50 was > 100 µM (inactive).

Question: How did the AC50 turn out when O=C(CCCOc1ccc(Cl)cc1Cl)Nc1ccccc1C(=O)O was run?
Answer: Its AC50 is > 100 µM (inactive).

Question: How did the AC50 turn out when CC(=O)c1c(C)[nH]c(C(=O)Nc2nc(C)cs2)c1C was run?
Answer: The AC50 was > 100 µM (inactive).

Question: With O=S(=O)(c1ccccc1)N1C[C@H]2[C@@H](c3ccccc31)[C@@H](CO)N2Cc1ccccc1 as the compound, how does the AC50 read?
Answer: The AC50 was > 100 µM (inactive).

Question: Which AC50 does the source give for O=C(CCCSc1nc2ccccc2s1)NCc1ccc2c(c1)OCO2 here?
Answer: Its AC50 is > 100 µM (inactive).

Question: How did the AC50 turn out when Cc1ccc2nc(SCC(=O)Nc3c(F)cccc3F)[nH]c2c1 was run?
Answer: Its AC50 is > 100 µM (inactive).

Question: COc1ccc(C(=O)Cn2c(C)nc([N+](=O)[O-])c2Br)cc1 was tested. Which AC50 did it give?
Answer: Its AC50 is > 100 µM (inactive).

Question: With Nc1cc([N+](=O)[O-])ccc1Nc1ccc(O)cc1 as the compound, how does the AC50 read?
Answer: The AC50 was > 100 µM (inactive).

Question: Which AC50 does the source give for COc1ccc(CCNc2nc(-c3ccncc3)cs2)cc1OC here?
Answer: The AC50 was > 100 µM (inactive).

Question: Which AC50 does the source give for CCOc1ccccc1/C=C/c1cc(C(=O)O)c2ccccc2n1 here?
Answer: The AC50 was > 100 µM (inactive).

Question: For Cc1cnc(NC(=O)Cc2c[nH]c3ccccc23)s1, which AC50 is on record?
Answer: Its AC50 is > 100 µM (inactive).

Question: How did the AC50 turn out when CN(c1ccccc1)S(=O)(=O)c1cccc(C(=O)OCC(=O)NCc2ccco2)c1 was run?
Answer: The AC50 was > 100 µM (inactive).

Question: With CCOC(=O)c1c(CS(=O)(=O)c2ccccc2)n(C)c2cc(Br)c(O)cc12 as the compound, how does the AC50 read?
Answer: The AC50 was > 100 µM (inactive).

Question: How did the AC50 turn out when CCCCc1ccc(S(=O)(=O)Nc2ccc(C)c(NS(C)(=O)=O)c2)cc1 was run?
Answer: The AC50 was > 100 µM (inactive).

Question: For O=C(O)c1ccccc1NC(=O)C(c1ccccc1)c1ccccc1, which AC50 is on record?
Answer: The AC50 was > 100 µM (inactive).

Question: CC(=O)Oc1ccc(N(C(C)=O)S(=O)(=O)c2ccc(C)cc2)c2ccccc12 was tested. Which AC50 did it give?
Answer: Its AC50 is > 100 µM (inactive).

Question: How did the AC50 turn out when C[C@]12CCC3C(CC[C@H]4C[C@@H](O)CC[C@]34C)[C@H]1CC[C@H]2O (stereo partly drawn) was run?
Answer: The AC50 was > 100 µM (inactive).

Question: With CCOc1ccc2sc(NS(=O)(=O)c3ccc(N)cc3)nc2c1 as the compound, how does the AC50 read?
Answer: The AC50 was > 100 µM (inactive).

Question: How did the AC50 turn out when O=C(CCc1ccccc1)Nc1sc2c(c1C(=O)O)CCCC2 was run?
Answer: Its AC50 is > 100 µM (inactive).

Question: With COc1ccc(NC(=O)CN(c2ccccc2)S(=O)(=O)c2ccccc2)c(OC)c1 as the compound, how does the AC50 read?
Answer: The AC50 was > 100 µM (inactive).

Question: How did the AC50 turn out when O=C(Cc1coc2cc(O)ccc12)N1CCN(S(=O)(=O)c2ccc(Br)cc2)CC1 was run?
Answer: Its AC50 is > 100 µM (inactive).

Question: How did the AC50 turn out when Cc1ccccc1-n1nnnc1SCCCC(=O)c1ccc(F)cc1 was run?
Answer: Its AC50 is > 100 µM (inactive).

Question: For CC1(C(=O)NS(=O)(=O)c2cccc(Cl)c2)CCN1C(=O)C1(c2ccc(Cl)cc2)CCC1 (stereo not drawn), which AC50 is on record?
Answer: Its AC50 is > 100 µM (inactive).
